From patent publication US8093281B2, “Indazoles as glucocorticoid receptor ligands” (Glaxo Group Limited, priority 2005, dated 2012)

Each molecule was assayed on NFkB activity (assay: Glucocorticoid mediated transrepression of NFkB activity (A549 cells, ELAM promoter alkaline phosphatase reporter, TNFα stimulated)). Conditions: Homo sapiens, A549, 16 h, Human A549 lung epithelial cells, 3 ng/ml human recombinant TNFα, read-out: pEC50, transrepression of NFkB activity (converted).
Format: cell-based
From the text: Human A549 lung epithelial cells were engineered to contain a secreted placental alkaline phosphatase gene under the control of the distal region of the NFkB dependent ELAM promoter as previously described in Ray, K. P., Farrow, S., Daly, M., Talabot, F. and Searle, N. “Induction of the E-selectin promoter by interleukin 1 and tumour necrosis factor alpha, and inhibition by glucocorticoids” Biochemical Journal (1997) 328: 707-15.
Compounds were solvated and diluted in DMSO, and transferred directly into assay plates such that the final concentration of DMSO was 0.7%. Following the addition of cells (40K per well), plates were incubated for 1 hr prior to the addition of 3 ng/ml human recombinant TNFα. Following continued incubation for 16 hr, alkaline phosphatase activity was determined by measuring the change in optical density at 405 nm with time following the addition of 0.7 volumes of assay buffer (1 mg/ml p-nitrophenylphosphate dissolved in 1M diethanolamine, 0.28M NaCl, 0.5 mM MgCl2). Dose response curves were constructed from which EC50 values were estimated.

EC50, < 3.16 nM:
COc1ccc(F)cc1C(C)(C)CC(O)(CNc1cccc2c1cnn2-c1ccccc1F)C(F)(F)F (racemic) [Example 1, 1,1,1-Trifluoro-4-[5-fluoro-2-(methyloxy)phenyl]-2-({[1-(2-fluorophenyl)-1H-indazol-4-yl]amino}methyl)-4-methyl-2-pentanol]
COc1ccc(F)cc1C(C)(C)CC(O)(CNc1cccc2c1cnn2-c1ccc(F)cc1)C(F)(F)F (racemic) [Example 2, 1,1,1-Trifluoro-4-[5-fluoro-2-(methyloxy)phenyl]-2-({[1-(4-fluorophenyl)-1H-indazol-4-yl]amino}methyl)-4-methyl-2-pentanol]
COc1ccc(F)cc1C(C)(C)CC(O)(CNc1cccc2c1cnn2-c1ccc(F)cc1F)C(F)(F)F (racemic) [Example 4, 2-({[1-(2,4-Difluorophenyl)-1H-indazol-4-yl]amino}methyl)-1,1′-trifluoro-4-[5-fluoro-2-(methyloxy)phenyl]-4-methyl-2-pentanol]
CCOC(=O)c1cccc(-n2ncc3c(NCC(O)(CC(C)(C)c4cc(F)ccc4OC)C(F)(F)F)cccc32)c1 (racemic) [Example 6, Ethyl 3-(4-{[4-[5-fluoro-2-(methyloxy)phenyl]-2-hydroxy-4-methyl-2-(trifluoromethyl)pentyl]amino}-1H-indazol-1-yl)benzoate]
CC(C)(CC(O)(CNc1cccc2c1cnn2-c1ccccc1)C(F)(F)F)c1cccc2c1OCC2 (racemic) [Example 8, 4-(2,3-Dihydro-1-benzofuran-7-yl)-1,1,1-trifluoro-4-methyl-2-{[(1-phenyl-1H-indazol-4-yl)amino]methyl}-2-pentanol]
CCOC(=O)c1cccc(-n2ncc3c(NCC(O)(CC(C)(C)c4cccc5c4OCC5)C(F)(F)F)cccc32)c1 (racemic) [Example 9, Ethyl 3-(4-{[4-(2,3-dihydro-1-benzofuran-7-yl)-2-hydroxy-4-methyl-2-(trifluoromethyl)pentyl]amino}-1H-indazol-1-yl)benzoate]
CC(C)(CC(O)(CNc1cccc2c1cnn2-c1ccccc1F)C(F)(F)F)c1cccc2c1OCC2 (racemic) [Example 10, 4-(2,3-Dihydro-1-benzofuran-7-yl)-1,1,1-trifluoro-2-({[1-(2-fluorophenyl)-1H-indazol-4-yl]amino}methyl)-4-methyl-2-pentanol]
CC(C)(CC(O)(CNc1cccc2c1cnn2-c1ccc(F)cc1)C(F)(F)F)c1cccc2c1OCC2 (racemic) [Example 11, 4-(2,3-Dihydro-1-benzofuran-7-yl)-1,1,1-trifluoro-2-({[1-(4-fluorophenyl)-1H-indazol-4-yl]amino}methyl)-4-methyl-2-pentanol]
CC(C)(CC(O)(CNc1cccc2c1cnn2-c1ccc(F)cc1F)C(F)(F)F)c1cccc2c1OCC2 (racemic) [Example 12, 2-({[1-(2,4-Difluorophenyl)-1H-indazol-4-yl]amino}methyl)-4-(2,3-dihydro-1-benzofuran-7-yl)-1,1,1-trifluoro-4-methyl-2-pentanol]
CC(C)(CC(O)(CNc1cccc2c1cnn2-c1ccncc1)C(F)(F)F)c1cccc2c1OCC2 (racemic) [Example 13, 4-(2,3-Dihydro-1-benzofuran-7-yl)-1,1,1-trifluoro-4-methyl-2-({[1-(4-pyridinyl)-1H-indazol-4-yl]amino}methyl)-2-pentanol]
COC(=O)c1cccc(-n2ncc3c(NCC(O)(CC(C)(C)c4cc(F)ccc4OC)C(F)(F)F)cccc32)c1 (racemic) [Example 14, Methyl 3-(4-{[4-[5-fluoro-2-(methyloxy)phenyl]-2-hydroxy-4-methyl-2-(trifluoromethyl)pentyl]amino}-1H-indazol-1-yl)benzoate]
COc1ccc(F)cc1C(C)(C)CC(O)(CNc1cc(C)cc2c1cnn2-c1ccccc1)C(F)(F)F (racemic) [Example 15, 1,1,1-Trifluoro-4-[5-fluoro-2-(methyloxy)phenyl]-4-methyl-2-{[(6-methyl-1-phenyl-1H-indazol-4-yl)amino]methyl}-2-pentanol]
COc1ccc(F)cc1C(C)(C)CC(O)(CNc1cc(C)cc2c1cnn2-c1ccc(F)cc1F)C(F)(F)F (racemic) [Example 16, 2-({[1-(2,4-Difluorophenyl)-6-methyl-1H-indazol-4-yl]amino}methyl)-1,1,1-trifluoro-4-[5-fluoro-2-(methyloxy)phenyl]-4-methyl-2-pentanol]
COc1ccc(F)cc1C(C)(C)CC(O)(CNc1cc(C)cc2c1cnn2-c1ccccc1F)C(F)(F)F (racemic) [Example 25, 1,1,1-Trifluoro-4-[5-fluoro-2-(methyloxy)phenyl]-2-({[1-(2-fluorophenyl)-6-methyl-1H-indazol-4-yl]amino}methyl)-4-methyl-2-pentanol]
COc1ccc(-n2ncc3c(NCC(O)(CC(C)(C)c4cccc5c4OCC5)C(F)(F)F)cccc32)cc1 (racemic) [Example 28, 4-(2,3-Dihydro-1-benzofuran-7-yl)-1,1,1-trifluoro-4-methyl-2-[({1-[4-(methyloxy)phenyl]-1H-indazol-4-yl}amino)methyl]-2-pentanol]
COc1ccc(F)cc1C(C)(C)CC(O)(CNc1cccc2c1cnn2-c1ccccc1F)C(F)(F)F (single isomer, unassigned) [Example 1-A, 1,1,1-Trifluoro-4-[5-fluoro-2-(methyloxy)phenyl]-2-({[1-(2-fluorophenyl)-1H-indazol-4-yl]amino}methyl)-4-methyl-2-pentanol]
COc1ccc(F)cc1C(C)(C)CC(O)(CNc1cccc2c1cnn2-c1ccc(F)cc1)C(F)(F)F (single isomer, unassigned) [Example 2-B, 1,1,1-Trifluoro-4-[5-fluoro-2-(methyloxy)phenyl]-2-({[1-(4-fluorophenyl)-1H-indazol-4-yl]amino}methyl)-4-methyl-2-pentanol]
CCOC(=O)c1cccc(-n2ncc3c(NCC(O)(CC(C)(C)c4cc(F)ccc4OC)C(F)(F)F)cccc32)c1 (single isomer, unassigned) [Example 6-B, Ethyl 3-(4-{[4-[5-fluoro-2-(methyloxy)phenyl]-2-hydroxy-4-methyl-2-(trifluoromethyl)pentyl]amino}-1H-indazol-1-yl)benzoate]
COC(=O)c1cccc(-n2ncc3c(NCC(O)(CC(C)(C)c4cc(F)ccc4OC)C(F)(F)F)cccc32)c1 (single isomer, unassigned) [Example 14-B, Methyl 3-(4-{[4-[5-fluoro-2-(methyloxy)phenyl]-2-hydroxy-4-methyl-2-(trifluoromethyl)pentyl]amino}-1H-indazol-1-yl)benzoate]
Cc1cc(NC[C@](O)(CC(C)(C)c2cc(F)ccc2O)C(F)(F)F)c2cnn(-c3ccc(F)cc3F)c2c1 [Example 18, 2(R)-2-[3-({[1-(2,4-Difluorophenyl)-6-methyl-1H-indazol-4-yl]amino}methyl)-4,4,4-trifluoro-3-hydroxy-1,1-dimethylbutyl]-4-fluorophenol]
COc1ccc(-n2ncc3c(NCC(O)(CC(C)(C)c4cc(F)ccc4OC)C(F)(F)F)cc(C)cc32)cc1 (stereo not drawn) [Example 19, 1,1,1-Trifluoro-4-[5-fluoro-2-(methyloxy)phenyl]-4-methyl-2-[({6-methyl-1-[4-(methyloxy)phenyl]-1H-indazol-4-yl}amino)methyl]-2-pentanol]
COc1cccc(-n2ncc3c(NCC(O)(CC(C)(C)c4cc(F)ccc4OC)C(F)(F)F)cc(C)cc32)c1 (stereo not drawn) [Example 22, 1,1,1-Trifluoro-4-[5-fluoro-2-(methyloxy)phenyl]-4-methyl-2-[({6-methyl-1-[3-(methyloxy)phenyl]-1H-indazol-4-yl}amino)methyl]-2-pentanol]
COc1ccc(F)cc1C(C)(C)CC(O)(CNc1cc(C)cc2c1cnn2-c1cccc(O)c1)C(F)(F)F (stereo not drawn) [Example 23, 3-(4-{[4-[5-Fluoro-2-(methyloxy)phenyl]-2-hydroxy-4-methyl-2-(trifluoromethyl)pentyl]amino}-6-methyl-1H-indazol-1-yl)phenol]
CCOC(=O)c1cccc(-n2ncc3c(NCC(O)(CC(C)(C)c4cc(F)ccc4OC)C(F)(F)F)cc(C)cc32)c1 (stereo not drawn) [Example 27, Ethyl 3-(4-{[4-[5-fluoro-2-(methyloxy)phenyl]-2-hydroxy-4-methyl-2-(trifluoromethyl)pentyl]amino}-6-methyl-1H-indazol-1-yl)benzoate]
